# Legend:
# [1] = test system: psoriatic lesions in a human subject; experiment: Human in-vivo psoriatic lesion treatment
# Experimental: Human in-vivo psoriatic lesion treatment: Cathelicidin 10 ug/ml or human beta defensin-2 diluted in PBS containing 0.1% BSA, or buffer carrier was applied to lesions in a human subject in a blind trial.
# [2] = test system: BETATC beta cell line; experiment: Thymidine incorporation cell proliferation assay; assay type: cell-based, mouse; settings: 2 microgram/ml, 3.5 days
# Experimental: Murine beta cell line were treated for 3.5 days with LL-37 at 2 microgram/ml (red/dark bars) and compared to PBS control ([…]). Cell proliferation was estimated by measuring [3(H)]-thymidine incorporation and was expressed as percent of control untreated cells. A representative experiment is shown.
# The antimicrobial peptides human cathelicidin LL-37: […] was obtained from AnaSpec, USA (Catalogue numbers: 61302). Cathelicidin at 2 ug/ml was added to the plate and compared with control.
# Cell proliferation was evaluated by measuring [3(H)]-thymidine incorporation into DNA. Cells were pulsed with [3(H)]-thymidine (1 microcurie/mL, ICN, Irvine, Calif.) for 1 hour, at 37 degrees centigrade. After incubation, cells were washed 3 times with PBS, incubated for 15 minutes at room temperature in 5% trichloroacetic acid and solubilized in 1% triton X-100. The radioactivity incorporated into the cells was counted in the [3(H)]-window of a Tricarb liquid scintillation counter. Mean values were determined from measurements of triplicate samples under each experimental condition for each experiment. Thymidine incorporation was determined as number of disintegrations per minute (DPM) per mg of protein.
# [3] = Infection and immunity, November 1999; cited from earlier work
# [4] = 10 ug/ml applied to lesion, 5 days treatment
Substance,"change of skin psoriatic lesion [1, 4]",beta cell proliferation ([3(H)]-thymidine incorporation) vs PBS control [2],half-life in blood of humans [3],"change of skin psoriatic lesion ([1]; applied to lesion, seven week course of treatment)"
LLGDFFRKSKEKIGKEFKRIVQRIKDFLRNLVPRTES [LL-37],slight improvement,significant BETATC beta cell line proliferation,approximately 3.4 days,
"SKEKIGKEFKRIVQRIKDFLRNLVPRTES (listed as Homo sapiens) [SK29, cathelicidin fragment, 29 amino acids]",slight improvement,,,
human beta defensin-2 [reference compound],,,,worsening
